Assay results reported in patent US12703731B2, “Long-acting GLP-1 compound” (Gan & Lee Pharmaceuticals Co., Ltd., priority 2019, dated 2026).

Legend:
db/db mice [1] = experiment: Single-dose study of blood glucose, food and water intake on db/db mice (Example 15); type: in vivo; conditions: single s.c. 100 μg/kg
Description: (§1) Male db/db (BKS/Lepr) mice aged 8-9 weeks were housed in appropriately sized feeding cages in a barrier environment and had free access to standard food and purified water, with environmental conditions controlled at 40%-60% RH and 22-24° C. After an adaptation period of 1-2 weeks, the mice were used in the experiment.
Before the start of the experiment on the day, the mice were evaluated for baseline blood glucose at about 9:00 a.m. and weighed.
The GLP-1 derivatives were dissolved in the vehicle to an administration concentration of 20 μg/mL, and the administration was performed once by subcutaneous injection (s.c., 50 μL/10 g body weight) at back of the neck. The compound of Example 2 was administered at about 10:00 a.m. (time 0), and the blood glucose of the mice was evaluated 1 h, 2 h, 3 h, 6 h, 12 h, 24 h, 48 h and 72 h after the administration. The tail of each mouse was cleaned with an alcohol cotton ball, and blood drops were collected from the tail using a disposable blood collection needle and measured with a glucometer (Roche) and accompanying testing strips. Meanwhile, the food intake and water intake of the mice were monitored every day.
The dose-response curve of blood glucose versus time, the dose-response curve of food intake versus time, and the dose-response curve of water intake versus time were plotted for each single dose of GLP-1 derivative. […]

db/db mice [2] = experiment: Single-dose pharmacodynamic study on db/db mice (Example 5); type: in vivo; conditions: single s.c. 100 μg/kg
Description: The title compounds of Examples 1-4 and Comparative Examples 1-4 (also known as GLP-1 derivatives) were tested in a single dose study on an obese mouse model (db/db mice) with type 2 diabetes (T2DM). The hypoglycemic drug effect of the GLP-1 derivatives was tested at a dose of 100 μg/kg.
as §1, with “relative humidity (RH)” for “RH”
Before the start of the experiment on the day, the mice were evaluated for baseline blood glucose at about 9:30 a.m. and weighed. […]
The GLP-1 derivatives were dissolved in the vehicle to an administration concentration of 20 μg/mL, and the administration volume was 5 mL/kg (i.e., 50 μL/10 g body weight). […] The tail of each mouse was cleaned with an alcohol cotton ball, and blood drops were collected from the tail using a disposable blood collection needle and measured with a glucometer and accompanying testing strips (Roche). Food intake and body weight of each mouse were measured at 24 h, 48 h and 72 h after the administration. […]

Kkay mice = experiment: Long-term pharmacodynamic study on Kkay mice (Example 17); type: in vivo; conditions: s.c. 100 and 300 μg/kg; dulaglutide 600 μg/kg; FIGS. 9a-9b
Description: Before the start of the experiment on the day, the mice were evaluated for baseline blood glucose at about 9:00 a.m. and weighed. […] The vehicle contained 14 mg/mL propylene glycol, 5.5 mg/mL phenol and 1.133 mg/mL disodium hydrogen phosphate, with a pH value of 7.4.
(time 0) at back of the neck once every 2 days for 16 consecutive times, the blood glucose of the mice was evaluated 3 h, 6 h, 1 day and 2 days after the first administration, and HbA1c was detected in an EDTA anticoagulation tube 48 h after the last administration.

human GLP-1 receptor = target: T1, human GLP-1 receptor (Homo sapiens, UniProt P43220); experiment: GLP-1 receptor binding, displacement of 125I-GLP-1, low and high HSA; conditions: 2% HSA versus 0.005% HSA
T1 construct: host or cells: cell membrane preparation
T1 sequence (P43220 24-463): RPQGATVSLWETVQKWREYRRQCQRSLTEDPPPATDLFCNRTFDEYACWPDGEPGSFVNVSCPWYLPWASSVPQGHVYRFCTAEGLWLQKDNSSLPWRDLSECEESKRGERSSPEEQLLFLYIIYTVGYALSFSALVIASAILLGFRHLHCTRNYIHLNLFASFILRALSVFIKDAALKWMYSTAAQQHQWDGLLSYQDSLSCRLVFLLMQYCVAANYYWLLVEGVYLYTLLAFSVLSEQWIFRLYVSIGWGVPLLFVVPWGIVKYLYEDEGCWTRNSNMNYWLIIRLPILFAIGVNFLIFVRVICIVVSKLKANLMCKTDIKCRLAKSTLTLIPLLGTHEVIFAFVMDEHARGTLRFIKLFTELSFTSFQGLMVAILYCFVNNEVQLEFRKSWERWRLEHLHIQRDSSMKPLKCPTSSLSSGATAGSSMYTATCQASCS
Description: For a receptor binding test in the presence of low-concentration HSA (0.005% (w/v)), 50 μL of assay buffer was added to each well of the assay plate. For a receptor binding test in the presence of high-concentration HSA (2% (w/v)), 50 μL of 8% (w/v) albumin stock solution was added to each well of the assay plate. […] In the presence of 0.005% HSA, all test compounds and the reference control were diluted to 2 μM with assay buffer, and then all samples were diluted in 4-fold serial gradient dilutions for a total of 10 concentration gradients. […] 25 μL of test compounds or reference control at different concentrations were added to the appropriate wells of the assay plate, respectively. Cell membrane protein aliquots were thawed and diluted to their working concentration (40 μg/mL), and 50 μL of the cell membrane-containing solution was added to each well of the assay plate. […] The assay plate was incubated at room temperature for 1 h. After the incubation, the reaction solution was collected on a GF/C filter plate using a cell collector, washed 6 times with a washing buffer, and dried in a drying oven at 50° C. for 1 h. 50 μL of scintillation solution was added and blocked, and the values were read using Microbeta2. IC50 values were calculated by the nonlinear regression analysis in the GraphPad Prism software and reported in nM. […]

Row | Substance | control of food intake and water intake compared to semaglutide (db/db mice [1]; db/db mice, FIGS. 7c-7d) | hypoglycemic effect on db/db mice compared to semaglutide (db/db mice [1]; same dose, FIGS. 7a-7b) | effective duration of action of hypoglycemic effect on db/db mice compared to semaglutide (db/db mice [2]) | hypoglycemic effect on db/db mice compared to semaglutide (db/db mice [2]; FIGS. 2a-2b) | hypoglycemic effect on Kkay mice compared to dulaglutide (Kkay mice) | Ratio [(IC50/nM) high-concentration HSA]/[(IC50/nM) low-concentration HSA] (human GLP-1 receptor)
1 | N-ε^26-[2-(2-[2-(4-[19-carboxynonadecanoylamino]-4(S)-carboxybutanoylamino)ethoxy]ethoxy)acetyl][Gly8, Arg34]GLP-1-(7-37) Peptide [Compound 2] | its effect is superior to semaglutide | superior hypoglycemic effect | longer than that of semaglutide | superior hypoglycemic effect to semaglutide | significantly superior hypoglycemic effect on Kkay mice to dulaglutide | –
2 | semaglutide | – | – | – | – | – | 813
